# From US5574062A, “Coumarin derivative and use thereof” (Morinaga Milk Industry Co., Ltd., priority 1993, dated 1996)
# Values joined by “and” are separate entries in the source; they are usually repeats but may differ in a detail not shown here. Identical values can stand only once. Like-named read-outs stand apart in the source and are kept apart here.
# Legend:
# 5-lipoxygenase = target: T1, 5-lipoxygenase (Rattus norvegicus, UniProt P12527); assay: 5-lipoxygenase inhibition assay (RBL-1 supernatant, arachidonic acid, HPLC of 5-HETE); type: biochemical, rat (basophilic leukemia cells RBL-1, ATCC CRL1378)
# T1 construct: host or cells: RBL-1 (rat basophilic leukemia cells)
# T1 sequence (P12527 1-673): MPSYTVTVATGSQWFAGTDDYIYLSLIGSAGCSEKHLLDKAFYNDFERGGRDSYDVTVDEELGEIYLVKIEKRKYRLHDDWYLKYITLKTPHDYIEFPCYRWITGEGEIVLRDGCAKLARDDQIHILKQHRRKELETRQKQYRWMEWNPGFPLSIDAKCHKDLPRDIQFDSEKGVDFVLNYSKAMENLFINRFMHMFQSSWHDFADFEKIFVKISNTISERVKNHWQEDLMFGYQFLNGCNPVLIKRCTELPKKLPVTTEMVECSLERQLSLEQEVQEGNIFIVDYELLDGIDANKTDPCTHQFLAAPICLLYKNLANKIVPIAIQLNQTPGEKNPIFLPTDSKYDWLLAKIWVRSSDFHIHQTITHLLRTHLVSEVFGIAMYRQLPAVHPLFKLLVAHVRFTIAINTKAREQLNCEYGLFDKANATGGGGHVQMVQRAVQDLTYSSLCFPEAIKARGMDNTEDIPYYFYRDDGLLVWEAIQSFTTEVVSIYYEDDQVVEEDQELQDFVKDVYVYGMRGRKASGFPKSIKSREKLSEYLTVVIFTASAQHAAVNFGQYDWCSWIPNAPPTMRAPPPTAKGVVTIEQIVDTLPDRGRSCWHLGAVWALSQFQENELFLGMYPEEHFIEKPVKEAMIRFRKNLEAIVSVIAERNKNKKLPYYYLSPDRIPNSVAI
# Procedure: Rat basophilic leukemia cells (RBL-1, ATCC CRL1378) were cultured in Dulbecco modified Eagle's medium containing 10% new-born bovine serum.
# Cultured cells were collected and washed twice with a 50 mM Tris-buffered saline (containing 154 mM sodium chloride, pH: 7.4, hereinafter described as TBS). The cell suspension (4×10^7 cells/ml) was then sonicated and centrifuged at 10,000×g for 10 minutes.
# The resultant supernatant was used to prepare an assay solution.
# To an aliquot (15 μl) of the enzyme solution (40 mU/ml equivalent) was added 185 μl of TBS, 50 μl of a 2 mM adenosine triphosphate in TBS, 50 μl of a 12 mM calcium chloride in TBS, 1 μl of a 3 mM indomethacin in ethanol solution, 1 μl of an aqueous 300 mM reduced glutathione solution, and 3 μl of varied concentrated test compounds solution in ethanol. The resultant mixture was incubated at 37° C. for 5 minutes. Subsequently, 3 μl of a 2.5 mM arachidonic acid solution in ethanol was added to incubate the mixture for 2 minutes at 37° C. The reaction was ceased by the addition of 600 μl of methanol. After being centrifuged at 10,000×g for 5 minutes, 5-hydroxyeicosatetraenoic acid recovered in the supernatant was separated with a reverse phase high-performance liquid chromatography equipped with a C-18 column and measured the absorption of diene at 234 nm to quantify the activity of the enzyme.
# Using the compounds of the present invention prepared in the same manner as in Examples 1-30, and Examples 33-36 as test samples and known baicalein (purchased from Wako Junyaku Kogyo) represented by the following formula 30 as a control: [drawing 34] the tests were performed for dose dependent inhibition to estimate IC50 values
# It was prepared in the same method as in Test Example 2.
# They were measured in the same method as in Test Example 2.
# 12-lipoxygenase = target: T2, 12-lipoxygenase (Rattus norvegicus, UniProt F1LQ70); assay: 12-lipoxygenase inhibition assay (rat platelet supernatant, arachidonic acid, HPLC of 12-HETE); type: biochemical, Sprague Dawley male rat (platelets); details: for maximum inhibition ratio of 12-lipoxygenase / inhibition at 10 µM: at a compound concentration of 10^-5 M, IC50 not obtained; for maximum inhibition ratio of 12-lipoxygenase: 10 µM; for inhibition at 10 µM: read-out: maximum inhibition ratio of 12-lipoxygenase
# T2 construct: The platelets were then sonicated at 4° C. and centrifuged at 100,000×g for 30 minutes to obtain a supernatant as a 12-lipoxygenase enzyme solution; from tissue; host or cells: Sprague Dawley rat platelets (from aortic blood), sonicated, 100,000 x g supernatant
# T2 sequence (F1LQ70 1-663): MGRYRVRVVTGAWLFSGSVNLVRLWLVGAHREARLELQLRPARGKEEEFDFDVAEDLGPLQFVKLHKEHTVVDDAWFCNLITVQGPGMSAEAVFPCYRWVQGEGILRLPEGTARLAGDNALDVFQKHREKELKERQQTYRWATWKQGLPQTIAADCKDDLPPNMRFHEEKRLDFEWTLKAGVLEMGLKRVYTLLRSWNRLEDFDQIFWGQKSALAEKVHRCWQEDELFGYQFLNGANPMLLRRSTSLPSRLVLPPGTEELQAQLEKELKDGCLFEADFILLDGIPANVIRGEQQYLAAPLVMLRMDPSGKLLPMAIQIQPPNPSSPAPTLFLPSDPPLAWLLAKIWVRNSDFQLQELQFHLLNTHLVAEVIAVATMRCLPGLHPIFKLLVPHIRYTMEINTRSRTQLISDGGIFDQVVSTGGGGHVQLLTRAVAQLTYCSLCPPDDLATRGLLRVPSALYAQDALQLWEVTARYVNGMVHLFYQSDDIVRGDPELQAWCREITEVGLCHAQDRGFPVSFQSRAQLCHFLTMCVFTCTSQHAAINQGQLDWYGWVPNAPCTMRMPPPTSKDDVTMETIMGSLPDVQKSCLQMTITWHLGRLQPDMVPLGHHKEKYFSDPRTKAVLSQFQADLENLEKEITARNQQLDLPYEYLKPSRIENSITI
# Procedure: A Sprague Dawley male rat was anesthetized with ether and bled from abdominal aorta using a syringe filled with about one-tenth volume of 3.8% sodium citrate. Blood was centrifuged at 180×g for 15 minutes at room temperature to pellet sanguineous platelet blood plasma. The resultant supernatant was again centrifuged at 1800×g for 10 minutes at 4° C. The pelleted platelets were rinsed twice with a washing buffer (50 mM Tris-hydrochloric acid buffer containing 154 mM sodium chloride and 2 mM EDTA, pH: 7.4). The platelets were then suspended in one-twentieth volume of a resuspension buffer (50 mM Tris-hydrochloric acid buffer containing 154 mM sodium chloride and 5.5 mM glucose, pH: 7.4). The platelets were then sonicated at 4° C. and centrifuged at 100,000×g for 30 minutes to obtain a supernatant as a 12-lipoxygenase enzyme solution.
# The enzyme solution described above was diluted with the resuspension buffer above mentioned to prepare an assay solution so as to include about 2 mU/ml of 12-lipoxygenase. To an aliquot (300 μl) of the assay solution was added 1 μl of a 3 mM indomethacin-ethanol solution, 1 μl of an aqueous 300 mM reduced-glutathione solution, and 3 μl of varied concentrated test compounds solution in ethanol. The resultant mixture was incubated at 37° C. for 5 minutes. Subsequently, 3 μl of a 2.5 mM arachidonic acid solution in ethanol was added to incubate with for another 5 minutes at 37° C., then the reaction was ceased by the addition of 600 μl of methanol. After being centrifuged at 10,000×g for 5 minutes, 12-hydroxyeicosatetraenoic acid recovered in the supernatant was separated with a reverse phase high-performance liquid chromatography equipped with a C-18 column and measured the absorption of diene at 234 nm to quantify the activity of 12-lipoxygenase.
# As test compounds were used the compounds of the present invention prepared in the same methods as in Example 4, Example 5 and Example 8 and the compounds prepared in the same methods as in Comparative Examples 1-5, and as a control was used esculetin (purchased from Tokyo Kasei), a known compound represented by the following formula: [drawing 33] and the test was conducted at varied concentrations.
# The enzyme solution was prepared according to the same manner as in Test Example 1.
# The inhibition assay was performed according to the same method as described in Test Example 1 except that the same samples used in measurement of the 5-lipoxygensase activity were used to estimate IC50 values. […]
# They were measured in the same method as in Test Example 1.
# [1] = Test Example 2, Table 2, read-out: IC50 value of 5-lipoxygenase
# [2] = Test Example 2, Table 2, read-out: IC50 value of 12-lipoxygenase
# [3] = Test Example 1, Table 1 and text, read-out: 12-lipoxygenase IC50 value
# [4] = Test Example 3, Table 11, value belongs to the deacylated compound, read-out: 12-lipoxygenase inhibiting activities of deacylated compounds (IC50 values)
# [5] = Test Example 5, Table 22, read-out: 5-Lipoxygenase inhibiting activity IC50 value
# [6] = Test Example 5, Table 22, read-out: 12-Lipoxygenase inhibiting activity IC50 value
Structure (SMILES),IC50 (5-lipoxygenase; [1]) [nM],IC50 (12-lipoxygenase; [2]) [nM],also measured
"COc1ccc(-c2cc3ccc(O)c(O)c3oc2=O)cc1 [Example 27, 3-(4-methoxyphenyl)-7,8-dihydroxycoumarin]",660,27,
"O=c1oc2c(O)c(O)ccc2cc1-c1ccc([N+](=O)[O-])cc1 [Example 23, 3-(4-nitrophenyl)-7,8-dihydroxycoumarin]",530,34,
Cc1cccc(-c2cc3cc(O)c(O)cc3oc2=O)c1 [Example 12],280,11,
"O=c1oc2cc(O)c(O)cc2cc1-c1ccc(Cl)cc1 [Example 8, 3-(4-chlorophenyl)-6,7-dihydroxycoumarin]",260,7,IC50 (12-lipoxygenase; [3]): 7 nM and ~1 nM; IC50 (12-lipoxygenase; [4]): 7 nM
"O=c1oc2cc(O)c(O)cc2cc1-c1ccccc1 [Example 6, 3-phenyl-6,7-dihydroxycoumarin]",270,16,
"O=c1oc2c(O)c(O)ccc2cc1-c1cc(Br)cs1 [Example 33, 3-(4-bromothiophen-2-yl)-7,8-dihydroxycoumarin]",360,12,
"O=c1oc2cc(O)c(O)cc2cc1-c1ccc(I)cc1 [Example 10, 3-(4-iodophenyl)-6,7-dihydroxycoumarin]",140,5.8,IC50 (12-lipoxygenase; [4]): 5.8 nM
O=c1oc2cc(O)c(O)cc2cc1-c1ccc2ccccc2c1 [Example 62],,,IC50 (5-lipoxygenase; [5]): 65 nM; IC50 (12-lipoxygenase; [6]): 4.6 nM
"O=c1oc2cc(O)c(O)cc2cc1-c1cc(Br)cs1 [Example 34, 3-(4-bromothiophen-2-yl)-6,7-dihydroxycoumarin]",150,5.2,IC50 (12-lipoxygenase; [4]): 5.2 nM
"O=c1oc2cc(O)ccc2cc1-c1ccc(Cl)cc1 [Comp. Example 2, reference compound]",,,"maximum inhibition ratio of 12-lipoxygenase (12-lipoxygenase; listed as Comparative Example 2, 10 µM): less than 10%; inhibition at 10 µM (12-lipoxygenase): 7%"
"COc1ccc2cc(-c3ccccc3)c(=O)oc2c1OC [Comp. Example 1, reference compound]",,,"maximum inhibition ratio of 12-lipoxygenase (12-lipoxygenase; listed as Comparative Example 1, 10 µM): less than 10%; inhibition at 10 µM (12-lipoxygenase): 5%"
O=c1oc2cc(O)c(O)cc2cc1-c1ccc(F)cc1 [Example 7],400,8,
"O=c1oc2c(O)c(O)ccc2c(-c2ccccc2)c1-c1ccccc1 [Comp. Example 4, reference compound]",,,IC50 (12-lipoxygenase; [3]): 120 nM
O=c1oc2cc(O)c(O)cc2cc1-c1csc2ccccc12 [Example 64],,,IC50 (5-lipoxygenase; [5]): 180 nM; IC50 (12-lipoxygenase; [6]): 10 nM
"O=c1oc2cc(O)c(O)cc2cc1-c1cccs1 [Example 15, 3-(thiophen-2-yl)-6,7-dihydroxycoumarin]",330,21,
"O=c1oc2c(O)c(O)ccc2cc1-c1ccc(Br)cc1 [Example 25, 3-(4-bromophenyl)-7,8-dihydroxycoumarin]",420,13,
"Cc1c(-c2ccc(Cl)cc2)c(=O)oc2cc(O)c(O)cc12 [Example 5, 3-(4-chlorophenyl)-4-methyl-6,7-dihydroxycoumarin]",410,9.2,IC50 (12-lipoxygenase; [3]): 9.2 nM; IC50 (12-lipoxygenase; [4]): 9.2 nM
"O=c1oc2c(O)c(O)ccc2cc1-c1cccc(Cl)c1 [Example 22, 3-(3-chlorophenyl)-7,8-dihydroxycoumarin]",270,9.6,IC50 (12-lipoxygenase; [4]): 9.6 nM
"Cc1ccc(-c2cc3cc(O)c(O)cc3oc2=O)o1 [Example 36, 3-(5-methylfuran-2-yl)-6,7-dihydroxycoumarin]",250,14,
Cc1ccc(-c2cc3ccc(O)c(O)c3oc2=O)o1 [Example 35],340,15,
O=c1oc2c(O)c(O)ccc2cc1-c1ccc2ccccc2c1 [Example 61],,,IC50 (5-lipoxygenase; [5]): 230 nM; IC50 (12-lipoxygenase; [6]): 34 nM
CCc1ccc(-c2cc3ccc(O)c(O)c3oc2=O)cc1 [Example 19],250,14,
O=c1oc2c(O)c(O)ccc2cc1-c1csc2ccccc12 [Example 63],,,IC50 (5-lipoxygenase; [5]): 190 nM; IC50 (12-lipoxygenase; [6]): 11 nM
"O=c1oc2c(O)c(O)ccc2cc1-c1ccc(Cl)cc1 [Example 4, 3-(4-chlorophenyl)-7,8-dihydroxycoumarin]",480,7.6,IC50 (12-lipoxygenase; [3]): 7.6 nM and ~1 nM; IC50 (12-lipoxygenase; [4]): 7.6 nM
"O=c1oc2cc(O)c(O)cc2cc1-c1cccc(Cl)c1 [Example 9, 3-(3-chlorophenyl)-6,7-dihydroxycoumarin]",160,4.3,IC50 (12-lipoxygenase; [4]): 4.3 nM
"O=c1oc2c(O)c(O)ccc2cc1-c1ccc(O)cc1 [Comp. Example 5, reference compound]",,,12-lipoxygenase inhibitory activity (in words) (12-lipoxygenase): decreases greatly; IC50 (12-lipoxygenase; [3]): 1100 nM
